Our source for the IC50 values is patent publication US11203613B2, “Peptidomimetic proteasome inhibitors” (CORNELL UNIVERSITY, priority 2017, dated 2021).

This test deals with Human Constitutive (Hu C-20S) β5 Active Subunit (Homo sapiens, UniProt P28074). Nature of the test: IC50 determination, human constitutive 20S proteasome β5c (suc-LLVY-AMC hydrolysis). It counts as biochemical. Particulars: Table 3; IC50 against human constitutive β5 active subunit; read-out: Hu-C20S β5.
For `C[C@H](NC(=O)[C@H](CC(=O)N1CCCC[C@@H]1C)NC(=O)C1CC(C)(C)C1)c1nc2c(F)cccc2[nH]1` [CEN-39, N—((S)-1-(((S)-1-(4-Fluoro-1H-benzo[d]Imidazol-2-yl)ethyl)amino)-4-((S)-2-methylpiperidin-1-yl)-1,4-dioxobutan-2-yl)-3,3-dimethylcyclobutane-1-carboxamide], the IC50 was found to be 7.6 µM.
`CC(C)C1CC1C(=O)N[C@@H](CC(=O)N1CCCC[C@@H]1C)C(=O)N[C@@H](C)c1nc2c(F)cccc2[nH]1` (stereo partly drawn) [CEN-40, N—((S)-1-(((S)-1-(4-Fluoro-1H-benzo[d]Imidazol-2-yl)ethyl)amino)-4-((S)-2-methylpiperidin-1-yl)-1,4-dioxobutan-2-yl)-2-isopropylcyclopropane-1-carboxamide]: the IC50 was 2.7 µM.
To `C[C@H](NC(=O)[C@H](CC(=O)N1CCCC[C@@H]1C)NC(=O)CCC(C)(C)C)c1nc2c(F)cccc2[nH]1` [CEN-41, N—((S)-1-(((S)-1-(4-Fluoro-1H-benzo[d]Imidazol-2-yl)ethyl)amino)-4-((S)-2-methylpiperidin-1-yl)-1,4-dioxobutan-2-yl)-4,4-dimethylpentanamide] belongs 4.8 µM; to `C[C@H](NC(=O)[C@H](CC(=O)N1CCCC[C@@H]1C)NC(=O)C1CC2(CCC2)C1)c1nc2c(F)cccc2[nH]1` [CEN-42, N—((S)-1-(((S)-1-(4-Fluoro-1H-benzo[d]imidazol-2-yl)ethyl)amino)-4-((S)-2-methylpiperidin-1-yl)-1,4-dioxobutan-2-yl)spiro[3.3]heptane-2-carboxamide], 27.4 µM; to `C[C@H](NC(=O)[C@H](CC(=O)N1CCCC[C@@H]1C)NC(=O)C1CC2(COC2)C1)c1nc2cccc(F)c2[nH]1` [CEN-43, N—((S)-1-(((S)-1-(7-Fluoro-1H-benzo[d]imidazol-2-yl)ethyl)amino)-4-((S)-2-methylpiperidin-1-yl)-1,4-dioxobutan-2-yl)-2-oxaspiro[3.3]heptane-6-carboxamide], 13.8 µM.
To `C[C@@H](NC(=O)[C@H](CC(=O)N1CCCC[C@@H]1C)NC(=O)CC1CC(C)(C)C1)c1nc2c(F)cccc2[nH]1` [CEN-44, (S)-2-(2-(3,3-Dimethylcyclobutyl)acetamido)-N—((R)-1-(4-fluoro-1H-benzo[d]imidazol-2-yl)ethyl)-4-((S)-2-methylpiperidin-1-yl)-4-oxobutanamide] belongs 0.9 µM; to `CC[C@H]1CCCCN1C(=O)C[C@H](NC(=O)CCC(C)C)C(=O)N[C@@H](C)c1nc2c(F)cc(F)cc2[nH]1` [CEN-45, N—((S)-1-(((S)-1-(4,6-Difluoro-1H-benzo[d]Imidazol-2-yl)ethyl)amino)-4-((S)-2-ethylpiperidin-1-yl)-1,4-dioxobutan-2-yl)-4-methylpentanamide], 4.1 µM; to `CC1CC(C(=O)N[C@@H](CC(=O)N2CCC[C@@H]2c2ccccc2)C(=O)NC(C)c2nc3ccccc3[nH]2)C1` (stereo partly drawn) [CEN-46, N-((2S)-1-((1-(1H-Benzo[d]imidazol-2-yl)ethyl)amino)-1,4-dioxo-4-((R)-2-phenylpyrrolidin-1-yl)butan-2-yl)-3-methylcyclobutane-1-carboxamide], 8.4 µM.
For `CC(C)CCC(=O)N[C@@H](CC(=O)N1CCC[C@@H]1c1ccccc1)C(=O)NC(C)c1nc2ccccc2[nH]1` (stereo partly drawn) [CEN-47, N-((2S)-1-((1-(1H-Benzo[d]imidazol-2-yl)ethyl)amino)-1,4-dioxo-4-((R)-2-phenylpyrrolidin-1-yl)butan-2-yl)-4-methylpentanamide], the IC50 is 29.4 µM.
To `CC(C)CCC(=O)N[C@@H](CC(=O)N1CCC[C@@H]1c1ccccc1)C(=O)N[C@@H](C)c1nc2ccccc2[nH]1` [CEN-48, N—((S)-1-(((S)-1-(1H-Benzo[d]imidazol-2-yl)ethyl)amino)-1,4-dioxo-4-((R)-2-phenylpyrrolidin-1-yl)butan-2-yl)-4-methylpentanamide] belongs 50 µM.
